Reference: ChEMBL document CHEMBL1147087, “An antidepressant that extends lifespan in adult Caenorhabditis elegans” (Nature, 2007)

Assays:
Type in all cases: functional
Caenorhabditis elegans [1] = assay: Effect on life span of Caenorhabditis elegans at 50 uM
Caenorhabditis elegans [2] = assay: Effect on life span of Caenorhabditis elegans at 100 uM
Caenorhabditis elegans [3] = assay: Effect on life span of Caenorhabditis elegans at 250 uM
Caenorhabditis elegans [4] = assay: Effect on life span of Caenorhabditis elegans at 10 uM
Caenorhabditis elegans [5] = assay: Effect on life span of Caenorhabditis elegans clk1 mutant at 10 uM
Caenorhabditis elegans [6] = assay: Effect on life span of Caenorhabditis elegans N2 at 10 uM
Caenorhabditis elegans [7] = assay: Effect on life span of Caenorhabditis elegans mod5 mutant at 10 uM
Caenorhabditis elegans [8] = assay: Effect on life span of Caenorhabditis elegans ser4 mutant at 10 uM
Caenorhabditis elegans [9] = assay: Effect on life span of Caenorhabditis elegans N2 treated on day 5 at 10 uM
Caenorhabditis elegans [10] = assay: Effect on life span of Caenorhabditis elegans eat2 mutant at 10 uM
Caenorhabditis elegans [11] = assay: Effect on life span of Caenorhabditis elegans ser3 mutant at 10 uM
Caenorhabditis elegans [12] = assay: Effect on life span of Caenorhabditis elegans daf2 mutant at 10 uM
Caenorhabditis elegans [13] = assay: Effect on life span of Caenorhabditis elegans tph1 mutant at 10 uM
Caenorhabditis elegans [14] = assay: Effect on life span of Caenorhabditis elegans ser1 mutant at 10 uM
Caenorhabditis elegans [15] = assay: Effect on life span of Caenorhabditis elegans ser2 mutant at 10 uM
Caenorhabditis elegans [16] = assay: Effect on life span of Caenorhabditis elegans ser7 mutant at 10 uM
Caenorhabditis elegans [17] = assay: Effect on life span of Caenorhabditis elegans ser3 mutant at 250 uM
Caenorhabditis elegans [18] = assay: Effect on life span of Caenorhabditis elegans daf16 mutant at 10 uM
Caenorhabditis elegans [19] = assay: Effect on life span of Caenorhabditis elegans mod1 mutant at 10 uM
Caenorhabditis elegans [20] = assay: Effect on life span of Caenorhabditis elegans at 200 uM
Caenorhabditis elegans [21] = assay: Increase in life span of Caenorhabditis elegans
Caenorhabditis elegans [22] = assay: Effect on life span of Caenorhabditis elegans ser7(tm1325) mutant at 50 uM
Caenorhabditis elegans [23] = assay: Effect on life span of Caenorhabditis elegans ser3(ok2007) mutant at 50 uM
Caenorhabditis elegans [24] = assay: (§1) Effect on life span of Caenorhabditis elegans N2 treated on day 5 at 50 uM
Caenorhabditis elegans [25] = assay: Effect on life span of Caenorhabditis elegans N2 treated on day 1 at 50 uM
Caenorhabditis elegans [26] = assay: Effect on life span of diet restricted Caenorhabditis elegans N2 at 50 uM
Caenorhabditis elegans [27] = assay: Effect on life span of Caenorhabditis elegans daf16(mu86) mutant at 50 uM
Caenorhabditis elegans [28] = assay: Effect on life span of Caenorhabditis elegans ser4(ok512) mutant at 50 uM
Caenorhabditis elegans [29] = assay: Effect on life span of Caenorhabditis elegans eat2(ad1116) mutant at 50 uM
Caenorhabditis elegans [30] = assay: Effect on life span of Caenorhabditis elegans daf2 mutant at 50 uM
Caenorhabditis elegans [31] = assay: Effect on life span of Caenorhabditis elegans tph1 mutant at 250 uM
Caenorhabditis elegans [32] = assay: Effect on life span of Caenorhabditis elegans N2 from L1 stage at 200 uM
Caenorhabditis elegans [33] = assay: Effect on life span of Caenorhabditis elegans N2 treated on day 1 at 10 uM
Caenorhabditis elegans [34] = assay: Effect on life span of Caenorhabditis elegans ser1 mutant at 50 uM
Caenorhabditis elegans [35] = assay: Effect on life span of Caenorhabditis elegans ser4 mutant at 250 uM
Caenorhabditis elegans [36] = assay: Effect on life span of Caenorhabditis elegans clk1([…]) mutant at 50 uM
Caenorhabditis elegans [37] = assay: Effect on life span of Caenorhabditis elegans mod5 mutant at 50 uM
Caenorhabditis elegans [38] = assay: Effect on life span of Caenorhabditis elegans ser2 mutant at 50 uM
Caenorhabditis elegans [39] = assay: Effect on life span of Caenorhabditis elegans daf2(e1370) mutant at 50 uM
Caenorhabditis elegans [40] = assay: Effect on life span of Caenorhabditis elegans tph1 mutant at 50 uM
Caenorhabditis elegans [41] = assay: Effect on life span of Caenorhabditis elegans N2 at 2 uM
Caenorhabditis elegans [42] = assay: Effect on life span of Caenorhabditis elegans ser7 mutant at 50 uM
Caenorhabditis elegans [43] = assay: Effect on life span of Caenorhabditis elegans tph(mg280) mutant at 50 uM
Caenorhabditis elegans [44] = assay: Effect on life span of Caenorhabditis elegans ser2(pk1357) mutant at 50 uM
Caenorhabditis elegans [45] = assay: Effect on life span of Caenorhabditis elegans mod1 mutant at 50 uM
Caenorhabditis elegans [46] = assay: Effect on life span of Caenorhabditis elegans ser3 mutant at 50 uM
Caenorhabditis elegans [47] = assay: Effect on life span of Caenorhabditis elegans N2 from L1 stage at 50 uM
Caenorhabditis elegans [48] = assay: Effect on life span of Caenorhabditis elegans mod1(ok103) mutant at 50 uM
Caenorhabditis elegans [49] = assay: Effect on life span of Caenorhabditis elegans N2 at 50 uM
Caenorhabditis elegans [50] = assay: Effect on life span of Caenorhabditis elegans N2 from L1 stage at 2 uM
Caenorhabditis elegans [51] = assay: Effect on life span of Caenorhabditis elegans N2 at 250 uM
Caenorhabditis elegans [52] = assay: Effect on life span of Caenorhabditis elegans ser1(ok345) mutant at 50 uM
Caenorhabditis elegans [53] = assay: Effect on life span of Caenorhabditis elegans ser3(ad1774) mutant at 50 uM
Caenorhabditis elegans [54] = assay: Effect on life span of Caenorhabditis elegans eat2 mutant at 50 uM
Caenorhabditis elegans [55] = assay: Effect on life span of Caenorhabditis elegans clk1 mutant at 50 uM
Caenorhabditis elegans [56] = assay: Effect on life span of Caenorhabditis elegans mod5(n3314) mutant at 50 uM
Caenorhabditis elegans [57] = assay: as §1; remark: listed apart in the source
Caenorhabditis elegans [58] = assay: Effect on life span of Caenorhabditis elegans ser4 mutant at 2 uM
Caenorhabditis elegans [59] = assay: Effect on life span of Caenorhabditis elegans N2 from L1 stage at 10 uM
Caenorhabditis elegans [60] = assay: Effect on life span of Caenorhabditis elegans N2 treated on day 1 at 100 uM
Caenorhabditis elegans [61] = assay: Effect on life span of Caenorhabditis elegans daf16 mutant at 50 uM
Caenorhabditis elegans [62] = assay: Effect on life span of Caenorhabditis elegans ser4 mutant at 50 uM
Caenorhabditis elegans [63] = assay: Effect on life span of Caenorhabditis elegans N2 from L1 stage at 100 uM
Caenorhabditis elegans [64] = assay: Effect on life span of Caenorhabditis elegans N2 treated on day 1 at 200 uM
Caenorhabditis elegans [65] = assay: Effect on life span of Caenorhabditis elegans ser3 mutant at 2 uM
Caenorhabditis elegans [66] = assay: Effect on life span of Caenorhabditis elegans N2 treated on day 1 at 2 uM
Caenorhabditis elegans [67] = assay: Effect on life span of Caenorhabditis elegans at 3000 uM
Caenorhabditis elegans [68] = assay: Effect on life span of Caenorhabditis elegans at 1000 uM

O=C1c2ccccc2S(=O)(=O)N1CCCCN1CCN(c2ncccn2)CC1 [IPSAPIRONE]
Activity (Caenorhabditis elegans [1]): 3% | Activity (Caenorhabditis elegans [2]): 0%

Fc1ccc([C@@H]2CCNC[C@H]2COc2ccc3c(c2)OCO3)cc1 [PAROXETINE]
Activity (Caenorhabditis elegans [1]): -42% | Activity (Caenorhabditis elegans [3]): -76%

COc1ccccc1N1CCN(CCCCN2C(=O)CCC2=O)CC1
Activity (Caenorhabditis elegans [1]): 6% | Activity (Caenorhabditis elegans [2]): -4%

CN(C)Cc1c[nH]c2ccccc12 [GRAMINE]
Activity (Caenorhabditis elegans [1]): 2% | Activity (Caenorhabditis elegans [4]): 3%

CSc1ccc2c(c1)C(N1CCN(C)CC1)Cc1ccccc1S2 (centres undefined) [METITEPINE]
Activity (Caenorhabditis elegans [5]): 10% | Activity (Caenorhabditis elegans [6]): 25% | Activity (Caenorhabditis elegans [7]): 8% | Activity (Caenorhabditis elegans [8]): 8% | Activity (Caenorhabditis elegans [9]): -1% | Activity (Caenorhabditis elegans [10]): -3% | Activity (Caenorhabditis elegans [11]): -9% | Activity (Caenorhabditis elegans [12]): 21% | Activity (Caenorhabditis elegans [13]): -2% | Activity (Caenorhabditis elegans [14]): 38% | Activity (Caenorhabditis elegans [15]): 17% | Activity (Caenorhabditis elegans [4]): 25% | Activity (Caenorhabditis elegans [16]): 40% | Activity (Caenorhabditis elegans [17]): -1% | Activity (Caenorhabditis elegans [18]): 10% | Activity (Caenorhabditis elegans [19]): 21%

CNCCCN1c2ccccc2CCc2ccccc21 [DESIPRAMINE]
Activity (Caenorhabditis elegans [1]): -2% | Activity (Caenorhabditis elegans [4]): -6% | Activity (Caenorhabditis elegans [20]): 3%

CCCN(CCC)C1CCc2cccc(O)c2C1 (centres undefined) [8-OH-DPAT]
Activity (Caenorhabditis elegans [1]): 3% | Activity (Caenorhabditis elegans [2]): 8% | Activity (Caenorhabditis elegans [20]): -13%

O=C1CC(c2cccc([N+](=O)[O-])c2)CC2=C1C(c1ccccc1)Nc1ccccc1N2 (centres undefined)
Activity (Caenorhabditis elegans [21]): 20%

c1cc2c(c(N3CCNCC3)c1)OCCO2 [ELTOPRAZINE]
Activity (Caenorhabditis elegans [1]): -12% | Activity (Caenorhabditis elegans [2]): -8%

COc1ccccc1N1CCN(CCCCN2C(=O)c3ccccc3C2=O)CC1 [NAN-190]
Activity (Caenorhabditis elegans [1]): -11% | Activity (Caenorhabditis elegans [2]): 2%

CN(C)CCCN1c2ccccc2CCc2ccccc21 [IMIPRAMINE]
Activity (Caenorhabditis elegans [1]): -1% | Activity (Caenorhabditis elegans [4]): -3% | Activity (Caenorhabditis elegans [20]): -2%

CNCCC(Oc1ccc(C(F)(F)F)cc1)c1ccccc1 (centres undefined) [FLUOXETINE]
Activity (Caenorhabditis elegans [1]): -12% | Activity (Caenorhabditis elegans [2]): -11% | Activity (Caenorhabditis elegans [20]): -48%

Clc1cccc(N2CCNCC2)c1 [CHLOROPHENYLPIPERAZINE]
Activity (Caenorhabditis elegans [1]): -26%

N[C@@H](Cc1ccccc1)C(=O)O [PHENYLALANINE]
Activity (Caenorhabditis elegans [1]): -1% | Activity (Caenorhabditis elegans [20]): -2%

CN1CCN2c3ncccc3Cc3ccccc3C2C1 (centres undefined) [MIRTAZAPINE]
Activity (Caenorhabditis elegans [1]): 20% | Activity (Caenorhabditis elegans [2]): 5%

CN1CCC(=C2c3ccccc3C=Cc3ccccc32)CC1 [CYPROHEPTADINE]
Activity (Caenorhabditis elegans [1]): 19% | Activity (Caenorhabditis elegans [22]): 54% | Activity (Caenorhabditis elegans [23]): -4% | Activity (Caenorhabditis elegans [24]): 7% | Activity (Caenorhabditis elegans [25]): 33% | Activity (Caenorhabditis elegans [26]): 9% | Activity (Caenorhabditis elegans [27]): 6% | Activity (Caenorhabditis elegans [2]): 17% | Activity (Caenorhabditis elegans [28]): 16% | Activity (Caenorhabditis elegans [29]): 4%

CN1CCN2c3ccccc3Cc3ccccc3C2C1 (centres undefined) [MIANSERIN]
Activity (Caenorhabditis elegans [30]): 16% | Activity (Caenorhabditis elegans [1]): 25% | Activity (Caenorhabditis elegans [31]): -1% | Activity (Caenorhabditis elegans [6]): 31% | Activity (Caenorhabditis elegans [32]): 5% | Activity (Caenorhabditis elegans [33]): 18% | Activity (Caenorhabditis elegans [22]): 60% | Activity (Caenorhabditis elegans [34]): 53% | Activity (Caenorhabditis elegans [35]): -20% | Activity (Caenorhabditis elegans [23]): -2% | Activity (Caenorhabditis elegans [36]): 3% | Activity (Caenorhabditis elegans [37]): 14% | Activity (Caenorhabditis elegans [38]): 19% | Activity (Caenorhabditis elegans [39]): 11% | Activity (Caenorhabditis elegans [24]): 6% | Activity (Caenorhabditis elegans [11]): -2% | Activity (Caenorhabditis elegans [40]): 10% | Activity (Caenorhabditis elegans [41]): 19% | Activity (Caenorhabditis elegans [42]): 50% | Activity (Caenorhabditis elegans [25]): 31% | Activity (Caenorhabditis elegans [26]): 4% | Activity (Caenorhabditis elegans [43]): 0% | Activity (Caenorhabditis elegans [44]): 19% | Activity (Caenorhabditis elegans [45]): 29% | Activity (Caenorhabditis elegans [46]): -5% | Activity (Caenorhabditis elegans [47]): 10% | Activity (Caenorhabditis elegans [27]): 14% | Activity (Caenorhabditis elegans [48]): 25% | Activity (Caenorhabditis elegans [49]): 48% | Activity (Caenorhabditis elegans [50]): 8% | Activity (Caenorhabditis elegans [51]): -17% | Activity (Caenorhabditis elegans [52]): 38% | Activity (Caenorhabditis elegans [53]): 3% | Activity (Caenorhabditis elegans [54]): -4% | Activity (Caenorhabditis elegans [55]): 10% | Activity (Caenorhabditis elegans [56]): 2% | Activity (Caenorhabditis elegans [57]): 1% | Activity (Caenorhabditis elegans [58]): 6% | Activity (Caenorhabditis elegans [59]): 9% | Activity (Caenorhabditis elegans [60]): 13% | Activity (Caenorhabditis elegans [61]): 12% | Activity (Caenorhabditis elegans [17]): -1% | Activity (Caenorhabditis elegans [28]): 7% | Activity (Caenorhabditis elegans [62]): 7% | Activity (Caenorhabditis elegans [63]): -4% | Activity (Caenorhabditis elegans [64]): -4% | Activity (Caenorhabditis elegans [29]): 2% | Activity (Caenorhabditis elegans [65]): -3% | Activity (Caenorhabditis elegans [66]): 13%

CN[C@H]1CC[C@@H](c2ccc(Cl)c(Cl)c2)c2ccccc21 [SERTRALINE]
Activity (Caenorhabditis elegans [1]): -76% | Activity (Caenorhabditis elegans [3]): -80%

NCCc1c[nH]c2ccc(O)cc12 [SEROTONIN]
Activity (Caenorhabditis elegans [67]): -6% | Activity (Caenorhabditis elegans [68]): -8%
